In paper PMC6199744, “Development of Chemical Proteomics for the Folateome and Analysis of the Kinetoplastid Folateome” (ACS Infectious Diseases, 2018):
Where two headings read alike, the source gives them in different places.

Legend:
Format in all cases: binding
[1] = target: T1, HeLa cell extract proteins (Homo sapiens, UniProt P50991)
T1 construct: endogenous in cells; host or cells: HeLa cell extract
T1 sequence (P50991 1-539): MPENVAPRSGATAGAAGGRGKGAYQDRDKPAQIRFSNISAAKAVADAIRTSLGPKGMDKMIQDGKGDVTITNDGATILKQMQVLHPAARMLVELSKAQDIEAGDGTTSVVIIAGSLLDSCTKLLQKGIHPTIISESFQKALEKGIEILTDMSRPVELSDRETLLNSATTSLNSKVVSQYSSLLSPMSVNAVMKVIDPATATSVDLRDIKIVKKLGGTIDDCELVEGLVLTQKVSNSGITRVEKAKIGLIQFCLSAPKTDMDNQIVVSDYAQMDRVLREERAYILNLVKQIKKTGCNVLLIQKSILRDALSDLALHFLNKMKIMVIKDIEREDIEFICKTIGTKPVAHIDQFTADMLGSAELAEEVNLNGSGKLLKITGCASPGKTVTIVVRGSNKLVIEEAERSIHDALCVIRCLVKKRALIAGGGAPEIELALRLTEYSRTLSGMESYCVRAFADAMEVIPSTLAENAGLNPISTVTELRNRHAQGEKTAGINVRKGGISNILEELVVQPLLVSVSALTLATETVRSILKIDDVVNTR

[2] = target: T2, HeLa cell extract proteins (Homo sapiens, UniProt P09622)
T2 construct: endogenous in cells; host or cells: HeLa cell extract
T2 sequence (P09622 36-509): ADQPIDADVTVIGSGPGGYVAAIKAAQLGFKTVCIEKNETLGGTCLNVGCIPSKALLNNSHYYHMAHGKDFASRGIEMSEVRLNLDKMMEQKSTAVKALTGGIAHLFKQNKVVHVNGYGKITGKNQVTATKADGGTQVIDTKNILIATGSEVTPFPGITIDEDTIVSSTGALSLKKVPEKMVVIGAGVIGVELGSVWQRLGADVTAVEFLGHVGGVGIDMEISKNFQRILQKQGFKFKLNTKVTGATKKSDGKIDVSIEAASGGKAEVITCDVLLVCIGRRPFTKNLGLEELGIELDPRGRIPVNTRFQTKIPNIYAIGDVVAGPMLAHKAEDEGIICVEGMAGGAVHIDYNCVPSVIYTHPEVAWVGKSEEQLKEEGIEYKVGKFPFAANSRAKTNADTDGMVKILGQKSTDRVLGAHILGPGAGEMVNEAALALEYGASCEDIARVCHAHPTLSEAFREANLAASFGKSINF

[3] = target: T3, HeLa cell extract proteins (Homo sapiens, UniProt Q8TEM1)
T3 construct: endogenous in cells; host or cells: HeLa cell extract
T3 sequence (Q8TEM1 27-1887): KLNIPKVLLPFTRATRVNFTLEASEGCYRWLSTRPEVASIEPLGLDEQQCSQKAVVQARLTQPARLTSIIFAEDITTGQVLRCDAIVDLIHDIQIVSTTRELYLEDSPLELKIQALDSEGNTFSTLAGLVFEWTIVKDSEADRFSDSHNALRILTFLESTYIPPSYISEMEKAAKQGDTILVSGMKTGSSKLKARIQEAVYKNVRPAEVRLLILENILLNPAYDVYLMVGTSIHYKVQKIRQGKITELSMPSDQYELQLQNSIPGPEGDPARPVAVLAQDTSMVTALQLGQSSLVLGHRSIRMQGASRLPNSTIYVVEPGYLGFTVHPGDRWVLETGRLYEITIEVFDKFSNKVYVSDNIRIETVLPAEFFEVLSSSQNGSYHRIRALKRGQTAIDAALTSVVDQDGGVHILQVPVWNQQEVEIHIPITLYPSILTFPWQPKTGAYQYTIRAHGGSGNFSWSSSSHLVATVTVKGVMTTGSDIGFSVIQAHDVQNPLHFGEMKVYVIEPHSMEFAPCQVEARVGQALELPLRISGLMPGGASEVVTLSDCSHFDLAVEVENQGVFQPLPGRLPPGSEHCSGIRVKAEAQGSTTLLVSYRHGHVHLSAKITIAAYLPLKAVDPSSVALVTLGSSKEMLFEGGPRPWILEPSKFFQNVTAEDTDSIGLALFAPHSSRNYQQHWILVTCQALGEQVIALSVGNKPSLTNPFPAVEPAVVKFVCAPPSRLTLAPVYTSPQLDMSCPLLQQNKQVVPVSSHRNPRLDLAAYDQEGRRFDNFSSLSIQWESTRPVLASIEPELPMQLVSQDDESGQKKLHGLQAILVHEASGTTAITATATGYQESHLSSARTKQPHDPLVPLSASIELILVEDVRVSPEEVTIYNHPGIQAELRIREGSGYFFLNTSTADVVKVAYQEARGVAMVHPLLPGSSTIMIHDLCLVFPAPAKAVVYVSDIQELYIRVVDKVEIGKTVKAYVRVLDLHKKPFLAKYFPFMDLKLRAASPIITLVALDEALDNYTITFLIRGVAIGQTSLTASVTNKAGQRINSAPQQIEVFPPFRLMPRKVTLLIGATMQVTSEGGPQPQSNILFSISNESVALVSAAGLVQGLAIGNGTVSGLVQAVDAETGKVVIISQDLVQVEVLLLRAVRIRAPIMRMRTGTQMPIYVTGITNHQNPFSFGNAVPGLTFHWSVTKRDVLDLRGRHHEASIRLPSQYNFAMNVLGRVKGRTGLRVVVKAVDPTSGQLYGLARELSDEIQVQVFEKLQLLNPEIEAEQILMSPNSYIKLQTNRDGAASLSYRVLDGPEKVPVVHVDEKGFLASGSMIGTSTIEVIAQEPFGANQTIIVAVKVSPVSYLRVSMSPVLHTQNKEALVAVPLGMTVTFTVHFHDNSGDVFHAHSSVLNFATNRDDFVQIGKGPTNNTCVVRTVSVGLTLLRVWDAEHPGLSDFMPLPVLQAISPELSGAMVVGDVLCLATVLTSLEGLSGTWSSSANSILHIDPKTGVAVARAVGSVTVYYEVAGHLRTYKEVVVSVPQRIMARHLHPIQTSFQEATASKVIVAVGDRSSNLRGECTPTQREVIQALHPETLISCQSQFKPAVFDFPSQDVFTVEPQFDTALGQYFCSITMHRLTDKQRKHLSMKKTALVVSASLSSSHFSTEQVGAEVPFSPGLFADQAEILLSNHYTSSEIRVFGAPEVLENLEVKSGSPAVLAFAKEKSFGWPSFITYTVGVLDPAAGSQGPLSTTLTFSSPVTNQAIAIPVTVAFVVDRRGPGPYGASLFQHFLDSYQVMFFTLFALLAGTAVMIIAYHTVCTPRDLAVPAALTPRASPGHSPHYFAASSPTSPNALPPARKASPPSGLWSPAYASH

[4] = target: T4, HeLa cell extract proteins (Homo sapiens, UniProt Q13085)
T4 construct: endogenous in cells; host or cells: HeLa cell extract

[5] = target: T5, HeLa cell extract proteins (Homo sapiens, UniProt O00148)
T5 construct: endogenous in cells; host or cells: HeLa cell extract
T5 sequence (O00148 whole entry): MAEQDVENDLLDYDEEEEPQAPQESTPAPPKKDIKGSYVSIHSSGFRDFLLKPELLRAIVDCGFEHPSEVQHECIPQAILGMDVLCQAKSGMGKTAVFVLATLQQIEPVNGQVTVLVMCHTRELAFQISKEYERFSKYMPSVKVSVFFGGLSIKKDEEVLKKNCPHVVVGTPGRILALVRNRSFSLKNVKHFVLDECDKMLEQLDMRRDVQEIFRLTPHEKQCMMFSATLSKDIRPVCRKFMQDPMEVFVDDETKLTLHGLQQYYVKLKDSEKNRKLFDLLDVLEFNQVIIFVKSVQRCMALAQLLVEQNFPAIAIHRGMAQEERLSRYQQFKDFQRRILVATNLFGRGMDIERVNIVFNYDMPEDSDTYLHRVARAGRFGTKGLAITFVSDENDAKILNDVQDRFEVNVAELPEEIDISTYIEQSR

[6] = target: T6, HeLa cell extract proteins (Homo sapiens, UniProt Q2TB90)
T6 construct: endogenous in cells; host or cells: HeLa cell extract
T6 sequence (Q2TB90 1-917): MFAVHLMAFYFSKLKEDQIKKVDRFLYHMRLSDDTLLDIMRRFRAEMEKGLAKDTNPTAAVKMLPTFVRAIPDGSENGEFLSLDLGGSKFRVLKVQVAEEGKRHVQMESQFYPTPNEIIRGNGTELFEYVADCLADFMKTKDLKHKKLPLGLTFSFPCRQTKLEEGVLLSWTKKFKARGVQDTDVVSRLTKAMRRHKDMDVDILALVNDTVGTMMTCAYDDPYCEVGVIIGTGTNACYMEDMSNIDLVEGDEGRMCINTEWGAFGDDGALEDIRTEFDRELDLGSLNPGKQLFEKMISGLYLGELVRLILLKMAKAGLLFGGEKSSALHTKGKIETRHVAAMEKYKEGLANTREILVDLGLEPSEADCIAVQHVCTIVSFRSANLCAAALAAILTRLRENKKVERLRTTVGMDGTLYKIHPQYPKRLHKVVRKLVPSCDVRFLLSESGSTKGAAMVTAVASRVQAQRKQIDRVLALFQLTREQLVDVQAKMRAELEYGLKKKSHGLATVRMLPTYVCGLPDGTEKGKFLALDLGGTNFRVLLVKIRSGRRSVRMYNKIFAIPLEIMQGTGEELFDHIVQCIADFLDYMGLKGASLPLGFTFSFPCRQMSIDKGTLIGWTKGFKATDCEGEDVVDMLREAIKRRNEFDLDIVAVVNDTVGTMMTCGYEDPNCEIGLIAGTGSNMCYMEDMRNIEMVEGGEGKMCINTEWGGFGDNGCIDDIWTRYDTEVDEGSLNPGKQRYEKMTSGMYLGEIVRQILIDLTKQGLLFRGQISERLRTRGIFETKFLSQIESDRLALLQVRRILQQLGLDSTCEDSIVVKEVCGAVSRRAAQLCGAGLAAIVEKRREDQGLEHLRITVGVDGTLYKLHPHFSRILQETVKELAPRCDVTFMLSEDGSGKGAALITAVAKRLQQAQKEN

[7] = target: T7, HeLa cell extract proteins (Homo sapiens, UniProt P37837)
T7 construct: endogenous in cells; host or cells: HeLa cell extract
T7 sequence (P37837 1-337): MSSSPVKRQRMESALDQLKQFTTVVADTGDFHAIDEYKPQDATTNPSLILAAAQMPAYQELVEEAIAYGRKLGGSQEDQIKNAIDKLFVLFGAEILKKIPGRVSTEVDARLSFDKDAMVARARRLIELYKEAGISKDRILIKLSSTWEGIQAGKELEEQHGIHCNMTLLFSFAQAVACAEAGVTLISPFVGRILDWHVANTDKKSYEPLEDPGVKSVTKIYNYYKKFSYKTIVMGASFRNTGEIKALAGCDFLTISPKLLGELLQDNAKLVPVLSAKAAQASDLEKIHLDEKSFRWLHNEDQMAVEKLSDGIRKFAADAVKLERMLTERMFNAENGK

[8] = target: T8, HeLa cell extract proteins (Homo sapiens, UniProt Q96LA8)
T8 construct: endogenous in cells; host or cells: HeLa cell extract
T8 sequence (Q96LA8 whole entry): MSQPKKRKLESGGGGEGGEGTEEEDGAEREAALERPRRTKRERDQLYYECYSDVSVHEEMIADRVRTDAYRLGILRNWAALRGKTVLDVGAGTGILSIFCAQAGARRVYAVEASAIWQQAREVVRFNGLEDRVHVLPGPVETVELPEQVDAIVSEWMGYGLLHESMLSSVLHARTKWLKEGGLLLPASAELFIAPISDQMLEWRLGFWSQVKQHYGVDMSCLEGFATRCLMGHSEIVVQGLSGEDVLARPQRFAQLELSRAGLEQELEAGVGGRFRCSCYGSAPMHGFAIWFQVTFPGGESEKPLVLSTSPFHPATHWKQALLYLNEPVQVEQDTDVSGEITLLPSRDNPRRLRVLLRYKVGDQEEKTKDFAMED

[9] = HeLa, protein DDX39 (CDNA FLJ55484, HIGHLY SIMILAR TO ATP-DEPENDENT RNA HELICASE DDX39.)
[10] = HeLa, protein TALDO1 (TRANSALDOLASE.)
[11] = HeLa, protein PRMT6 (PROTEIN ARGININE N-METHYLTRANSFERASE 6)

Row | SMILES | fold changes relative to vehicle control ([1]; protein CCT4, HeLa) | fold changes relative to vehicle control ([2]; HeLa, protein DLD) | fold changes relative to vehicle control ([3]; captured protein NUP210, HeLa) | fold changes relative to vehicle control ([4]; protein ACACA, HeLa) | fold changes relative to vehicle control [5, 9] [fold] | fold changes relative to vehicle control ([6]; captured protein HKDC1, HeLa) | fold changes relative to vehicle control [7, 10] [fold] | fold changes relative to vehicle control ([8]; protein PRMT6, HeLa) | fold changes relative to vehicle control ([2]; HeLa, captured protein DLD) | fold changes relative to vehicle control ([3]; HeLa, captured protein NUP210) | fold changes relative to vehicle control ([4]; HeLa, captured protein ACACA) | fold changes relative to vehicle control ([5]; HeLa, protein DDX39) | fold changes relative to vehicle control ([6]; HeLa, protein HKDC1) | fold changes relative to vehicle control ([7]; protein TALDO1, HeLa) | fold changes relative to vehicle control [8, 11] | also measured
1 | Nc1nc2cccc(-c3ccccc3)c2n1Cc1ccc(Cl)c(Cl)c1 [compound 3] | 1 | 1.01 | 0.86 | 1.04 | 0.86 | 1.05 | 0.83 | 0.93 |  |  |  |  |  |  |  | 
2 | Nc1nc2[nH]cc(CCc3ccc(C(=O)N[C@@H](CCC(=O)O)C(=O)O)cc3)c2c(=O)[nH]1 [PTX, pemetrexed] |  |  |  |  |  |  |  |  |  |  |  |  |  |  |  | fold changes relative to vehicle control [1]: 1.01; fold changes relative to vehicle control [2]: 0.96; fold changes relative to vehicle control [3]: 0.99; fold changes relative to vehicle control [4]: 1.05; fold changes relative to vehicle control [5]: 0.99; fold changes relative to vehicle control [6]: 0.89; fold changes relative to vehicle control [7]: 1.04; fold changes relative to vehicle control [8]: 1.03
3 | Nc1nc2c(c(=O)[nH]1)N(C=O)C(CNc1ccc(C(=O)N[C@@H](CCC(=O)O)C(=O)O)cc1)CN2 (some centres unmarked) [LEU, leucovorin] | 1 |  |  |  |  |  |  |  | 1.01 | 0.97 | 1.02 | 1.07 | 0.89 | 0.88 | 1.17 | 
4 | CCCCCCOc1cccc(Cc2cnc(N)nc2N)c1 [compound 2] | 1.73 | 0.42 | 0.98 | 1.06 | 2.4 | 1.1 | 2.2 | 0.89 |  |  |  |  |  |  |  | 
5 | NCCOCCOCC(=O)Nc1nc2ncc(CNc3ccc(C(=O)NC(CCC(=O)O)C(=O)O)cc3)nc2c(=O)[nH]1 (centres unmarked) [compound 6] | 1.14 |  |  |  |  |  |  |  | 0.99 | 1.07 | 1.12 | 1.17 | 1.06 | 1.22 | 0.93 | 
6 | CCCCCCOc1ccc(Cc2cnc(N)nc2N)cc1 [compound 1] | 1.25 | 0.96 | 0.74 | 1.09 | 1.22 | 1 | 1.32 | 1.01 |  |  |  |  |  |  |  | 
7 | NCCCNc1ccc(C(=O)NC(CCC(=O)O)C(=O)O)cc1 (centres unmarked) [compound 7] | 0.94 |  |  |  |  |  |  |  | 1.03 | 1.05 | 1.17 | 0.88 | 1.09 | 0.92 | 1.01 | 
